{"source": "patent US20220040193A1", "about": "“FORMULATIONS OF PHOSPHOINOSITIDE 3-KINASE INHIBITORS” (VENTHERA, INC., priority 2020, published 2022)", "origin": "cited, not measured here", "data": [{"smiles": "Oc1cccc(-c2nc(N3CCOCC3)c3sccc3n2)c1", "note": "[MTPP, 3-(4-morpholinothieno(3,2-d)pyrimidin-2-yl)phenol]", "values": [{"measurement": "PI3K inhibiting activity", "setting": "PI3K", "result": "excellent PI3K inhibiting activity"}, {"measurement": "cancer cell growth inhibiting activity", "setting": "cancer cell", "result": "cancer cell growth inhibiting activity"}]}]}
